From patent US20020103172A1, “VITAMIN D3 DERIVATIVES” (priority 1996, published 2002)
Where two headings read alike, the source gives them in different places.

Assays:
[1] = tested on: HaCaT, a spontaneously immortalized, non-tumorigenic human skin keratinocyte cell line; test: HaCaT antiproliferative assay measuring 3H-thymidine uptake; type: cell-based; details: for HaCaT rel.: ratio between IC50 of 1,25(OH)2D3 and IC50 of the compound, 50% inhibition of 3H-thymidine incorporation, value >1 = more active than 1,25(OH)2D3; for potency in the HaCaT-assay (psoriasis model), in words: compared with 1,25(OH)2D3
Excerpt: A useful assay for the rating of test compounds for antiproliferative activity in skin cells, e.g. antipsoriatic effect, is the in vitro assay using HaCaT, a spontaneously immortalized, non-tumorigenic human skin keratinocyte cell line (Mørk Hansen, C. et al., J. Invest. Dermatol. 1, 44-48 (1996)), measuring ^3H -thymidine uptake.

[2] = tested on: mouse spleen lymphocytes; test: Mixed lymphocyte reaction assay (MLR), allogeneic stimulation, 3H-thymidine incorporation; type: cell-based; details: for MLR rel.: ratio between IC50 of 1,25(OH)2D3 and IC50 of the compound, 72 hours incubation, 3H-thymidine incorporation, value >1 = more active than 1,25(OH)2D3
Protocol: An in vitro assay for the rating of test compounds for immunosuppressive potency is the mixed lymphocyte reaction assay, “MLR”, measuring the allogeneic stimulation of mouse spleen lymphocytes: lymphocytes, obtained from the spleens of BALB/c and CB6F1 mice, are stimulated by co-cultivating 5×10^6/ml cells from BALB/c mice (responders) with 7.5×10^6/ml cells from CB6F1 mice (inducers). The mixed cultures of lymphocytes are incubated with the test compounds for 72 hours. Cellular DNA-synthesis is assessed by the incorporation of ^3H-thymidine in the DNA.

[3] = tested on: calcium metabolism; details: rat, in vivo
Protocol: (§1) The calcemic activity of the compounds was determined in rats in vivo, as previously described (Binderup, L., Bramm, E., Biochem. Pharmacol. 37, 889-895 (1988)).

[4] = tested on: calcium metabolism; test: Calcemic activity in rats in vivo; details: calcemic activity relative to 1,25(OH)2D3, low values preferred
Protocol: as §1

Row | Calc. rel. [3] | Calc. rel. [4] | Compound | HaCaT rel. [1] | MLR rel. [2] | potency in the HaCaT-assay (psoriasis model), in words [1] | immunosuppressive activity (MLR), in words [2]
1 | 1 | – | C=C1/C(=C\C=C2/CCC[C@]3(C)[C@@H]([C@H](C)CCCC(C)(C)O)CC[C@@H]23)C[C@@H](O)C[C@@H]1O [1,25, 1α,25-dihydroxy-vitamin D3, reference compound] | 1 | 1 | – | –
2 | – | 0.54 | C=C1C(=CC=C2CCCC3(C)C(C(C)CCCCC(O)(CC)CC)=CCC23)CC(O)CC1O [Compound 107, 1(S),3(R)-Dihydroxy-20(R)-(5-ethyl-5-hydroxyhept-1-yl)-9,10-seco-oregna-5(Z),7(E),10(19),16-tetraene] | 43 | 5 | considerably more potent than 1,25(OH)2D3 | potent effects
3 | – | 1.47 | C=C1C(=CC=C2CCCC3(C)C(C(C)C=CC=CC(O)(CC)CC)=CCC23)CC(O)CC1O [Compound 111, 1(S),3(R)-Dihydroxy-20(R)-(5-ethyl-5-hydroxyhepta-1(E),3(E)-dien-1-yl)-9,10-seco-pregna-5(Z),7(E),10(19)16-tetraene] | 51 | 6.5 | considerably more potent than 1,25(OH)2D3 | potent effects
